Laboratory results as given in article PMC7050258, “Inhibition of MGAT2 modulates fat‐induced gut peptide release and fat intake in normal mice and ameliorates obesity and diabetes in ob/ob mice fed on a high‐fat diet” (FEBS Open Bio, 2020).
“And” between values parts separate entries of the source, which are not always exact repeats. Identical values can stand only once.

What was measured:
DGAT2 human = molecular target: T1, DGAT2 human (Homo sapiens, UniProt Q96PD7); test: in vitro inhibitory activity against DGAT2; assay type: biochemical
T1 sequence (Q96PD7 1-388): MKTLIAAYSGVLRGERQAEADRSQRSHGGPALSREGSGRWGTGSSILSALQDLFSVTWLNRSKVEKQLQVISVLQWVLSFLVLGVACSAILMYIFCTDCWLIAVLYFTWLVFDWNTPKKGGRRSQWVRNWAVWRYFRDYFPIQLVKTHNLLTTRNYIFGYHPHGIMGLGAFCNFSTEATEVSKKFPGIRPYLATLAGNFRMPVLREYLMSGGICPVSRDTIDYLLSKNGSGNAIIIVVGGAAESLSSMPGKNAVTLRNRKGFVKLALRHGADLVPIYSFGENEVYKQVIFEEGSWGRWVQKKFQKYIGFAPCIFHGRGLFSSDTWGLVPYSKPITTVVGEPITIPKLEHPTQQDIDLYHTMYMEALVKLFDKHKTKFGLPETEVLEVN
Experimental: (§1) CpdB, CpdA, and pioglitazone were synthesized at Takeda Pharmaceutical Co., Ltd. (Tokyo, Japan). The in vitro inhibitory activities of CpdB and CpdA against MGAT2 and related acyltransferases (DGAT1, DGAT2, and ACAT1) were evaluated as described in our previous report 17 and patent application 19. Liraglutide (Victoza) was purchased from Novo Nordisk Pharma Ltd. (Bagsvaerd, Denmark). All other chemicals were of analytical grade and purchased from Wako Pure Chemicals (Osaka, Japan).

C57BL/6J mice [1] = test: Food choice test (HFD vs LFD); assay type: in vivo, mouse; conditions: overnight, CpdB 10 mg/kg oral, liraglutide 0.04 mg/kg sc
Experimental: The choice between HFD (D12451; Research Diets, Inc.) and low‐fat diet (LFD, 10% kcal fat, 3.8 kcal·g^−1; D124510B; Research Diets, Inc.) was assessed in C57BL/6J mice. Following habituation to normal chow, HFD and LFD were presented in separate containers simultaneously, and overnight food intake of each diet was monitored. The mice were divided into groups based on the data of food intake and body weight. Then, vehicle or CpdB (10 mg·kg^−1) was orally administered, and the overnight food intake of each diet was monitored. CpdB was suspended in 0.5% methylcellulose. As a positive control, liraglutide (0.04 mg·kg^−1) dissolved in 10% DMSO/saline was subcutaneously administered.

C57BL/6J mice [2] = test: Fat-induced gut peptide release and plasma TG after meal or oil load; assay type: in vivo, mouse; conditions: for Plasma total GLP-1 at 3 h, AVE / ΔPlasma total PYY AUC (0-2 h), AVE / Plasma total GLP-1 at 3 h, individual animal / ΔPlasma total PYY AUC (0-2 h), individual animal: CpdB 10 mg/kg oral; for Plasma total GLP-1 at 3 h, AVE / ΔPlasma total PYY AUC (0-2 h), AVE / Plasma TG at 2 h after oil load, AVE: mean, N=5; for Plasma total GLP-1 at 3 h, individual animal / ΔPlasma total PYY AUC (0-2 h), individual animal / Plasma TG at 2 h after oil load, individual animal: single animal values
Experimental: CpdB was suspended in 0.5% methylcellulose. Thirty minutes after administration, fat was loaded via oral gavage of either olive oil (8 mL·kg^−1) or liquid meal as described above (10 mL·kg^−1). Blood samples were collected precompound administration (defined as 0 h) and 1, 2, and 3 h after fat loading. Plasma levels of peptide tyrosine–tyrosine (PYY) and GLP‐1 were measured. To confirm the in vivo efficacy of CpdB, plasma TG levels were measured 2 h after olive oil loading. Mice orally loaded with water (8 mL·kg^−1) following vehicle administration were prepared as the control group.
(§2) Blood samples were collected from the tail or facial vein without anesthesia and centrifuged at 1500 g for 10 min at 4 °C to isolate the plasma. To prevent degradation of incretin hormone, blood samples were treated with not only heparin/aprotinin but also a dipeptidyl peptidase‐4 (DPP‐4) inhibitor. Plasma alanine aminotransferase […] levels were measured by an Autoanalyzer 7180 (Hitachi High‐Technologies Corporation, Tokyo, Japan). GHb was measured with an automated GHb analyzer (HLC‐723G8; Tosoh, Tokyo, Japan). Plasma insulin was measured with an ELISA kit (Shibayagi Co., Ltd., Gunma, Japan). Plasma levels of total GLP‐1 and total PYY were also measured with an ELISA kit (Wako Pure Chemicals).

HFD-fed ob/ob mice = HFD-fed ob/ob mice study; assay type: in vivo, mouse
Experimental: Male ob/ob mice were fed an HFD (D12451; Research Diets, Inc.) from 8 weeks of age to the end of the study. After 2 weeks of HFD feeding, the mice were divided into groups based on their body weight, food intake, glycated hemoglobin (GHb), and plasma biochemical parameters. […] Compounds were suspended in 0.5% methylcellulose. Body weight and food intake were monitored during the study. On day 34, blood was collected and GHb and plasma biochemical parameters were measured. In addition, body composition was analyzed by EchoMRI‐900 (Hitachi Aloka Medical, Ltd., Tokyo, Japan). On day 36, the mice in the vehicle‐ and CpdB‐treated group were individually placed in the metabolic chamber of an Oxymax system (Columbus Instruments, Columbus, OH, USA). After 3 h of adaptation, oxygen consumption (VO2) and carbon dioxide production (VCO2) were analyzed for 22 h (from 13:00 to 11:00). During the measurement, dosing of vehicle or CpdB was performed at 18:00. Respiratory quotient (RQ) and energy expenditure (EE) were calculated with the following formulas: RQ=VCO2/VO2 EEkcal/h=3.815+1.232×VCO2/VO2×VO2
as §2

human MGAT2 = human MGAT2 (Homo sapiens, UniProt Q3SYC2); test: in vitro inhibitory activity against MGAT2 (human); assay type: biochemical
Chain of human MGAT2 (Q3SYC2 whole entry): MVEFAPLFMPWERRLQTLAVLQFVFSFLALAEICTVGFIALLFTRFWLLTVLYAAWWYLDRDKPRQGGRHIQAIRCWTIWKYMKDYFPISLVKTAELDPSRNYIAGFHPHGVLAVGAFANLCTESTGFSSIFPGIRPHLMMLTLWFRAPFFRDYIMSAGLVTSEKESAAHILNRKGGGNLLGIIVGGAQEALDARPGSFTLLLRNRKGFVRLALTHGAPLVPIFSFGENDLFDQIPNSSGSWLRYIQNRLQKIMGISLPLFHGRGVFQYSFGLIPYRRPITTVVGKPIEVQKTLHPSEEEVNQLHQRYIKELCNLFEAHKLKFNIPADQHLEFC
Experimental: as §1

[3] = CpdB 30 mg/kg, pioglitazone 3 mg/kg oral once daily, mean
[4] = CpdB 30 mg/kg, pioglitazone 3 mg/kg oral once daily, single animal values
[5] = EchoMRI, day 34, CpdB 30 mg/kg, pioglitazone 3 mg/kg, mean
[6] = EchoMRI, day 34, CpdB 30 mg/kg, pioglitazone 3 mg/kg, single animal values
[7] = dark phase, day 36, CpdB 30 mg/kg, mean
[8] = dark phase, day 36, CpdB 30 mg/kg, single animal values
[9] = day 34, CpdB 30 mg/kg, pioglitazone 3 mg/kg oral once daily, mean ± SD, n=8
[10] = light phase, day 36, CpdB 30 mg/kg, mean
[11] = light phase, day 36, CpdB 30 mg/kg, single animal values

CC(C)(OC(=O)N[C@H]1CC[C@H](OC(=O)N2CCc3cc(S(=O)(=O)Nc4c(F)cc(Cl)cc4F)cc(N4CCCC4=O)c32)CC1)C(F)(F)F [CpdB]
IC50 (DGAT2 human): > 30000 nM
Food intake, energy intake of HFD, AVE (C57BL/6J mice [1]; mean, N=5): 9.74 kcal
Food intake, energy intake of low-fat diet, AVE (C57BL/6J mice [1]; mean, N=5): 0.16 kcal
Food intake, total energy intake, AVE (C57BL/6J mice [1]; mean, N=5): 9.90 kcal
Food intake, energy intake of HFD, individual animal (C57BL/6J mice [1]; single animal values): 9.96 kcal and 11.47 kcal and 8.41 kcal and 8.88 kcal
Food intake, energy intake of low-fat diet, individual animal (C57BL/6J mice [1]; single animal values): 0.23 kcal and 0.00 kcal and 0.34 kcal
Food intake, total energy intake, individual animal (C57BL/6J mice [1]; single animal values): 10.19 kcal and 11.47 kcal and 8.41 kcal and 9.23 kcal
Plasma total GLP-1 at 3 h, AVE (C57BL/6J mice [2]; liquid meal load): 1.78 pM
ΔPlasma total PYY AUC (0-2 h), AVE (C57BL/6J mice [2]; liquid meal load): 6.19 pMxh
Plasma total GLP-1 at 3 h, individual animal (C57BL/6J mice [2]; liquid meal load): 4.08 pM and 1.57 pM and 0.30 pM and 2.65 pM
ΔPlasma total PYY AUC (0-2 h), individual animal (C57BL/6J mice [2]; liquid meal load): 7.70 pMxh and -9.56 pMxh and 10.56 pMxh and 11.27 pMxh and 10.99 pMxh
Plasma TG at 2 h after oil load, AVE (C57BL/6J mice [2]; oil load, 10 mg/kg oral): 242.5 mg/dL
Plasma TG at 2 h after oil load, individual animal (C57BL/6J mice [2]; oil load, 10 mg/kg oral, 10 mg/kg): 165.0 mg/dL and 186.0 mg/dL and 337.8 mg/dL and 259.8 mg/dL and 264.0 mg/dL
Plasma TG at 2 h after oil load, AVE (C57BL/6J mice [2]; oil load, 30 mg/kg oral): 219.8 mg/dL
Plasma TG at 2 h after oil load, individual animal (C57BL/6J mice [2]; oil load, 30 mg/kg oral, 30 mg/kg): 261.0 mg/dL and 281.4 mg/dL and 164.4 mg/dL and 231.0 mg/dL and 161.4 mg/dL
Plasma total GLP-1 at 3 h, AVE (C57BL/6J mice [2]; oil load): 17.63 pM
ΔPlasma total PYY AUC (0-2 h), AVE (C57BL/6J mice [2]; oil load): 68.45 pMxh
Plasma total GLP-1 at 3 h, individual animal (C57BL/6J mice [2]; oil load): 14.07 pM and 19.72 pM and 15.79 pM and 16.41 pM and 22.18 pM
ΔPlasma total PYY AUC (0-2 h), individual animal (C57BL/6J mice [2]; oil load): 83.34 pMxh and 44.80 pMxh and 90.28 pMxh and 47.69 pMxh and 76.14 pMxh
Body weight change from initial, AVE (HFD-fed ob/ob mice; [3]): 16.96%
Cumulative food intake, AVE (HFD-fed ob/ob mice; [3]): 119.28 g
Body weight change from initial, individual animal (HFD-fed ob/ob mice; [4]): 14.99% and 19.62% and 18.91% and 14.63% and 13.72% and 24.18% and 12.96% and 16.65%
Cumulative food intake, individual animal (HFD-fed ob/ob mice; [4]): 119.82 g and 117.97 g and 119.56 g and 119.18 g and 110.06 g and 129.88 g and 111.80 g and 125.96 g
Body composition, Fat, AVE (HFD-fed ob/ob mice; [5]): 59.70%
Body composition, Lean, AVE (HFD-fed ob/ob mice; [5]): 40.30%
Body composition, Fat, individual animal (HFD-fed ob/ob mice; [6]): 63.06% and 55.96% and 61.22% and 59.99% and 59.40% and 60.55% and 59.10% and 58.29%
Body composition, Lean, individual animal (HFD-fed ob/ob mice; [6]): 38.78% and 40.01% and 40.60% and 39.45% and 40.90% and 41.71% and 36.94% and 44.04%
GHb, Pre (HFD-fed ob/ob mice; before dosing, mean ± SD, n=8): 5.9 ± 0.4%
Plasma ALT, Pre (HFD-fed ob/ob mice; before dosing, mean ± SD, n=8): 378 ± 76 U·L^−1
Plasma AST, Pre (HFD-fed ob/ob mice; before dosing, mean ± SD, n=8): 333 ± 64 U·L^−1
Plasma insulin, Pre (HFD-fed ob/ob mice; before dosing, mean ± SD, n=8): 106 ± 30 ng/mL
ΔGHb, AVE (HFD-fed ob/ob mice; change 34 days after repeated dosing, CpdB 30 mg/kg, pioglitazone 3 mg/kg oral once daily, mean): -0.45%
ΔGHb, individual animal (HFD-fed ob/ob mice; change 34 days after repeated dosing, CpdB 30 mg/kg, pioglitazone 3 mg/kg, single animal values): 0.60% and -0.50% and -0.20% and -1.10% and -0.60%
Average EE, Dark, AVE (HFD-fed ob/ob mice; [7]): 0.55 kcal/h
Average RQ, Dark, AVE (HFD-fed ob/ob mice; [7]): 0.87
Average EE, Dark, individual animal (HFD-fed ob/ob mice; [8]): 0.61 kcal/h and 0.55 kcal/h and 0.54 kcal/h and 0.52 kcal/h and 0.53 kcal/h
Average RQ, Dark, individual animal (HFD-fed ob/ob mice; [8]): 0.88 and 0.87 and 0.85 and 0.86
GHb, Post (HFD-fed ob/ob mice; [9]): 5.4 ± 0.6 %
Plasma ALT, Post (HFD-fed ob/ob mice; [9]): 632 ± 144 U·L^−1
Plasma AST, Post (HFD-fed ob/ob mice; [9]): 492 ± 122 U·L^−1
Plasma insulin, Post (HFD-fed ob/ob mice; day 34, CpdB 30 mg/kg, pioglitazone 3 mg/kg oral once daily, nonfasting, mean ± SD, n=8): 109 ± 40 ng/mL
Average EE, Light, AVE (HFD-fed ob/ob mice; [10]): 0.45 kcal/h
Average RQ, Light, AVE (HFD-fed ob/ob mice; [10]): 0.83
Average EE, Light, individual animal (HFD-fed ob/ob mice; [11]): 0.46 kcal/h and 0.42 kcal/h and 0.43 kcal/h and 0.44 kcal/h and 0.49 kcal/h and 0.48 kcal/h
Average RQ, Light, individual animal (HFD-fed ob/ob mice; [11]): 0.82 and 0.83 and 0.84 and 0.80
selectivity against related acyltransferases (DGAT1, DGAT2, and ACAT1) (human MGAT2; MGAT2 vs DGAT1, DGAT2, ACAT1): greater than 300 fold
IC50 (human MGAT2; human MGAT2): 8.1 nM
